Data from patent publication US10195198B2, “Methods and compositions for treating diseases and conditions” (Afferent Pharmaceuticals Inc., priority 2014, dated 2019).
Entries after “also recorded” stand apart in the source; their conditions may differ.

Key:
carotid sinus nerve [1] = assay: isolated carotid body/carotid sinus nerve preparation, P2X3 KO mouse (homotrimeric P2X2 mediated responses)
carotid sinus nerve [2] = assay: isolated carotid body/carotid sinus nerve preparation, wild-type mouse
From the text: FIGS. 1A-1D show the effects of Compound A, a benzyl-diaminopyrimidine P2X3 antagonist which is seen to reduce carotid sinus nerve activity and excitatory responses to hypoxia and ATP (or analogs), in an isolated preparation of carotid body/carotid sinus nerves. […] As shown, the dual P2X3 and P2X2/3 antagonist Compound A attenuates basal tonic firing and hypoxia-induced excitation of carotid sinus afferents in an isolated carotid body preparation of mouse. […] The IC50 is in the range between 10-30 μM.

carotid sinus nerve [3] = assay: isolated carotid body/carotid sinus nerve preparation, P2X2 KO mouse (homotrimeric P2X3 mediated responses)

IC50 (carotid sinus nerve [2]; Mus musculus, wild type preparations, reversible, read-out: IC50 for inhibition of the response of sinus nerve to hypoxia)	Structure (SMILES)	basal tonic firing and hypoxia or ATP-induced excitation of carotid sinus afferents (carotid sinus nerve [1])	basal tonic firing and hypoxia-induced excitation of carotid sinus afferents (carotid sinus nerve [2]; wild-type mouse isolated carotid body preparation)	basal tonic firing and hypoxia, α,β-MeATP induced excitation of carotid sinus afferents (carotid sinus nerve [3]; P2X2 KO mouse isolated carotid body preparation)	potency compared with wild type (carotid sinus nerve [3]; P2X2 KO mouse, lower concentrations effective)
	Cc1nc(N=Nc2ccc(S(=O)(=O)O)cc2S(=O)(=O)O)c(COP(=O)(O)O)c(C=O)c1O [PPADS]	inhibitory activity			
10 to 30 µM	COc1cc(Cc2cnc(N)nc2N)c(C(C)C)cc1OC [Compound A]	fails to attenuate; also recorded: no longer sensitive to inhibition	attenuates; also recorded: attenuation	attenuates	Greater potency; also recorded: more sensitively observed
